Here are results for two compounds from patent US20240279338A1, “Combination Treatment of Cancer” (Ares Trading S.A., priority 2021, published 2024).

One test relates to E0771 cells. Kind of test: CD73hi E0771 syngeneic tumor model, tumor growth. Type of test: in vivo, mice. The following applies: for tumor growth inhibition, T/C: E0771, female C57BL/6 mice, Day 18 post treatment initiation. How it is done:
Female C57BL/6 mice were inoculated with 1.5×10^5 E0771 cells into the right mammary fat pad and were treated with Compound A (300 mg/kg po, BID), bintrafusp alfa (8.2 mg/kg iv, days 0, 3, 6), Compound A+bintrafusp alfa, when average tumor volume reached approximately 75 mm^3. Vehicle (po, BID) and isotype control antibody injections (6.65 mg/kg iv, days 0, 3, 6) were used as controls. (A) Average tumor volumes with SEM, and (B) individual tumor volumes are presented. Tumor volume data were analyzed using two-way ANOVA followed by Tukey's multiple comparison test.
To determine whether combined treatment with the dual A2A/A2B receptor inhibitor “Compound A” ((S)-7-Oxa-2-aza-spiro[4.5]decane-2-carboxylic acid [7-(3,6-dihydro-2H-pyran-4-yl)-4-methoxy-thiazolo[4,5-c]pyridin-2-yl]-amide) and bintrafusp alfa can inhibit tumor growth in either CD73^hi or CD73^low models, tumor growth was monitored in […] syngeneic tumor models. Animals were inoculated with either CD73^hi tumor cells (4T1, E0771, or EMT6) or with CD73^low MC38, H22 or MBT2 tumor cells. For all tumor models, animals were treated with either 1) vehicle and isotype, 2) Compound A and isotype, 3) vehicle and bintrafusp alfa, or 4) Compound A and bintrafusp alfa.
In the third CD73^hi tumor model, female C57BL/6 mice were inoculated with 1.5×10^5 E0771 cells into the right mammary fat pad and were randomized into treatment groups when average tumor volume reached approximately 75 mm^3. […] Thus, to test its combination potential with Compound A in this model we had to reduce the dose for bintrafusp alfa from 24 mg/kg (iv, days 0, 3, and 6) down to 8.2 mg/kg (iv, days 0, 3, 6). Thus, E0771 tumor-bearing mice were treated with Compound A (300 mg/kg po, BID), bintrafusp alfa (8.2 mg/kg iv, days 0, 3, 6), Compound A+bintrafusp alfa starting the day 0 (when they were randomized into treatment groups). Vehicle (po, BID) and isotype control antibody injections (6.65 mg/kg iv, days 0, 3, 6) were used as controls.

The next test deals with MC38 cells. The test can be described thus: CD73low MC38 syngeneic tumor model, tumor growth. Type of test: in vivo, mice. The protocol: Female C57BL/6 mice were inoculated with 1×10^6 MC38 cells in the right lower flank and were treated with Compound A (300 mg/kg po, BID), bintrafusp alfa (24.6 mg/kg iv, days 0, 3, 6), Compound A+bintrafusp alfa, when average tumor volume reached approximately 70 mm^3. Vehicle (po, BID) and isotype control antibody injections (20 mg/kg iv, days 0, 3, 6) were used as controls. (A) Average tumor volumes with SEM, and (B) individual tumor volumes are presented. Tumor volume data were analyzed using two-way ANOVA followed by Tukey's multiple comparison test.
(§1) To determine whether combined treatment with the dual A2A/A2B receptor inhibitor “Compound A” ((S)-7-Oxa-2-aza-spiro[4.5]decane-2-carboxylic acid [7-(3,6-dihydro-2H-pyran-4-yl)-4-methoxy-thiazolo[4,5-c]pyridin-2-yl]-amide) and bintrafusp alfa can inhibit tumor growth in either CD73^hi or CD73^low models, tumor growth was monitored in […] syngeneic tumor models. Animals were inoculated with either CD73^hi tumor cells (4T1, E0771, or EMT6) or with CD73^low MC38, H22 or MBT2 tumor cells. For all tumor models, animals were treated with either 1) vehicle and isotype, 2) Compound A and isotype, 3) vehicle and bintrafusp alfa, or 4) Compound A and bintrafusp alfa. […]

The test system of the next test is H22 cells. The test can be described thus: CD73low H22 syngeneic tumor model, tumor growth. Type of test: in vivo. Particulars: H22, female BALB/c mice; Day 16 post treatment initiation; Compound A 300 mg/kg po BID; bintrafusp alfa 24.6 mg/kg iv days 0, 3, 6. How it is done:
Female BALB/c mice were inoculated with 1×10^6 H22 cells in the right upper flank and were treated with Compound A (300 mg/kg po, BID), bintrafusp alfa (24.6 mg/kg iv, days 0, 3, 6), Compound A+bintrafusp alfa, when average tumor volume reached approximately 55 mm3. Vehicle (po, BID) and isotype control antibody injections (20 mg/kg iv, days 0, 3, 6) were used as controls. (A) Average tumor volumes with SEM, and (B) individual tumor volumes are presented. Tumor volume data were analyzed using two-way ANOVA followed by Tukey's multiple comparison test.
as §1

In test [1] the test system is ADORA2A (A2A). The test can be described thus: RNAseq gene expression in 4T1 tumors. Type of test: in vivo, mice. Particulars: bintrafusp alfa 24.6 mg/kg iv, Day 6 post treatment, vs isotype. How it is done: (§2) FIG. 4: Bintrafusp alfa increases expression of A2B in CD73h adenosine-rich 4T1 tumor model, but not in CD73^low adenosine-low MC38 tumor model. For the 4T1 tumor model, female BALB/c mice were inoculated with 2×10^5 4T1 cells into the right mammary fat pad. For the MC38 tumor model, female C57BL/6 mice were inoculated subcutaneously in the right flank with MC38 cells (1×10^6). Animals in both studies were randomized into the groups and treatments started when the average tumor size reached approximately 100-150 mm^3. For both models, there were 15 mice in each group. The animals were treated with isotype control (20 mg/kg, iv) or bintrafusp alfa (24.6 mg/kg, iv) on days 0, 1, and 2. Tumors were harvested on Day 6 post treatment start, flash frozen, and used for RNASeq analysis. Gene expression levels of (A) NT5E, (B) ADORA2A (A2A), and (C) ADORA2B (A2B) are presented as mean±SEM. P-values were calculated using two-way ANOVA.
(§3) To determine whether bintrafusp alfa treatment modulates expression of A2A or A2B receptors or NT5E (gene encoding CD73), mice with established 4T1 and MC38 tumors were treated with 20 mg/kg isotype antibody or 24.6 mg/kg bintrafusp alfa.

The subject of another test is ADORA2B (A2B). Kind of test: RNAseq gene expression in 4T1 tumors. Type of test: in vivo, mice. Particulars: CD73hi 4T1 tumors; bintrafusp alfa 24.6 mg/kg iv; Day 6 post treatment; vs isotype. The protocol:
as §2, §3

Test [2] relates to NT5E (CD73). Kind of test: RNAseq gene expression in 4T1 tumors. The following applies: bintrafusp alfa 24.6 mg/kg iv, Day 6 post treatment, vs isotype. Type of test: in vivo, mice. How it is done: as §2, §3
Test [3] concerns ADORA2A (A2A). The test can be described thus: RNAseq gene expression in MC38 tumors. It is filed as in vivo, mice. The following applies: bintrafusp alfa 24.6 mg/kg iv, Day 6 post treatment, vs isotype. The protocol: as §2, §3
In test [4] the test system is NT5E (CD73). Kind of test: RNAseq gene expression in MC38 tumors. Type of test: in vivo, mice. Particulars: bintrafusp alfa 24.6 mg/kg iv, Day 6 post treatment, vs isotype. The protocol:
as §2, §3

The mark [5] stands for this setting: Compound A 300 mg/kg po BID, bintrafusp alfa 8.2 mg/kg iv days 0, 3, 6.

Consider “bintrafusp alfa: anti-PD-L1:TGFβRII fusion protein, CAS 1918149-01-5; human IgG1 antibody against PD-L1 fused to extracellular domain of human TGF-β receptor II”, for which the “tumor growth inhibition, T/C” value was found to be 65.7% with E0771 cells (setting [5]); 42.1% in the test on MC38 cells (MC38, female C57BL/6 mice, Day 22 post treatment initiation, Compound A 300 mg/kg po BID, bintrafusp alfa 24.6 mg/kg iv days 0, 3, 6); 34.4% in the test with H22 cells. Also, the “sensitivity of the tumor model” value in the test on E0771 cells (E0771, bintrafusp alfa original dose 24.6 mg/kg iv days 0, 3, and 6) is recorded as “high sensitivity”. Besides, the “expression of A2A” value in the test on ADORA2A (A2A) [1] and with ADORA2A (A2A) [3] was “no changes” in each case. Moreover, in the test on ADORA2B (A2B), the “expression of A2B” value is reported as “increased”. The “expression of NT5E (CD73)” value in the test with NT5E (CD73) [2] and with NT5E (CD73) [4] was “no changes” each time.

On to `COc1ncc(C2=CCOCC2)c2sc(NC(=O)N3CC[C@@]4(CCCOC4)C3)nc12` [Compound A, (S)-7-Oxa-2-aza-spiro[4.5]decane-2-carboxylic acid [7-(3,6-dihydro-2H-pyran-4-yl)-4-methoxy-thiazolo[4,5-c]pyridin-2-yl]-amide], for which the “tumor growth inhibition, T/C” value in the test with E0771 cells (setting [5]) came to 72.9%. The “mice with CR (complete responses)” value in the test on E0771 cells (E0771, Compound A 300 mg/kg po BID, bintrafusp alfa 8.2 mg/kg iv days 0, 3, 6) came out at 1. For the same compound, the “tumor growth inhibition” value in the test with MC38 cells (MC38, Compound A 300 mg/kg po BID monotherapy) is on record as “no tumor growth inhibition observed”.
